Source: patent US9957254B2, “Cyclohexen-1-yl-pyridin-2-yl-1h-pyrazole-4-carboxylic acid derivatives and the use thereof as soluble guanylate cyclase activators” (Novartis AG, priority 2014, dated 2018)
pEC50: −log10 of the molar value.

Molecular target: T1, soluble guanylate cyclase (Homo sapiens, UniProt Q02153)
T1 construct: expressed in transfected cells
Test: CHO cellular assay (cGMP production, Cisbio cGMP HTRF)
Type: cell-based
Conditions: CHO K1 cells overexpressing human GUCYA3/GUCYB3 (clone 8E10), 1 mM IBMX, 20 uM ODQ, 1 h room temperature, listed 0.5 nM means actual EC50 ≤0.5 nM (quantification limit)
Source text: Chinese hamster ovary (CHO) cells overexpressing soluble guanylate cyclase were generated to test the effect of sGC activators in a cellular context. Human cDNAs for GUCYA3 (RefSeq: NM_000856.3) and GUCYB3 (RefSeq: NM_000857.1) were amplified by PCR from a HUVEC (Human Umbilical Vein Endothelial Cells) cDNA library and cloned into mammalian expression vectors. CHO K1 cells (ATCC CCL-61) were transfected using Lipofectamine 2000 following manufacturer's instructions and stably expressing clones were identified by antibiotic selection. CHO GUCY clone 8E10 was used for subsequent experiments.
Cells were seeded at a density of 3000 cells/well in white 384-well proxyplates (Perkin Elmer) and incubated overnight, then the medium was removed and cells were washed with assay buffer (HBSS, 0.1% BSA, 1 mM IBMX, 20 uM ODQ). sGC activators were serially diluted in DMSO, then diluted in assay buffer prior to adding to cells (10 ul/well, final DMSO concentration 0.5%). Cells were incubated with compounds for 1 h room temperature, then assayed for cGMP production using Cisbio cGMP HTRF kit (62GM2PEC) according to manufacturer's instructions.
The EC50s are calculated based on the amount of cGMP interpolated from the standard curve, using a 4-parameter sigmoidal dose-response.
Compounds of invention are active on sGC activation. Data on Table 1 collected using the assay of Biological Example 1. The minimum EC50 quantification limit of the assay is 0.5 nM, therefore any compound listed as having an EC50 value of 0.5 nM has a actual EC50 of ≤0.5 nM.

T1 sequence (Q02108 whole entry partner): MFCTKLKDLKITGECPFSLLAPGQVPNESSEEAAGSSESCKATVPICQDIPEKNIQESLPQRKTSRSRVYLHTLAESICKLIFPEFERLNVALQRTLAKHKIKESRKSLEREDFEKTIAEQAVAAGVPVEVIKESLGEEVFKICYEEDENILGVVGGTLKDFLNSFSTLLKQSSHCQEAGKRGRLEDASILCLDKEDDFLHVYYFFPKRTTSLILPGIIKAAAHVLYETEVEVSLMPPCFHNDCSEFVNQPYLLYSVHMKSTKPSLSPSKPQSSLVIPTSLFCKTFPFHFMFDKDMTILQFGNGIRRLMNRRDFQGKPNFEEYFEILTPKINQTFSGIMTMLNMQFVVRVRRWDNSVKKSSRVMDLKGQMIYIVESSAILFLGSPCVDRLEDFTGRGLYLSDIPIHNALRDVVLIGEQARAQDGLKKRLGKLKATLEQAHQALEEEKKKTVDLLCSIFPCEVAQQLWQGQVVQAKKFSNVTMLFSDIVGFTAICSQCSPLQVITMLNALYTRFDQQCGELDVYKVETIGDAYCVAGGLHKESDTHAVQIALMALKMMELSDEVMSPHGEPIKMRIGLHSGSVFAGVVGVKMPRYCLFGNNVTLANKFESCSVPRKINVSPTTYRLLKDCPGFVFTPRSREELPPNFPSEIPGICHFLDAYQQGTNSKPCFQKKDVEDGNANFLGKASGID
T1 sequence (Q02153 whole entry): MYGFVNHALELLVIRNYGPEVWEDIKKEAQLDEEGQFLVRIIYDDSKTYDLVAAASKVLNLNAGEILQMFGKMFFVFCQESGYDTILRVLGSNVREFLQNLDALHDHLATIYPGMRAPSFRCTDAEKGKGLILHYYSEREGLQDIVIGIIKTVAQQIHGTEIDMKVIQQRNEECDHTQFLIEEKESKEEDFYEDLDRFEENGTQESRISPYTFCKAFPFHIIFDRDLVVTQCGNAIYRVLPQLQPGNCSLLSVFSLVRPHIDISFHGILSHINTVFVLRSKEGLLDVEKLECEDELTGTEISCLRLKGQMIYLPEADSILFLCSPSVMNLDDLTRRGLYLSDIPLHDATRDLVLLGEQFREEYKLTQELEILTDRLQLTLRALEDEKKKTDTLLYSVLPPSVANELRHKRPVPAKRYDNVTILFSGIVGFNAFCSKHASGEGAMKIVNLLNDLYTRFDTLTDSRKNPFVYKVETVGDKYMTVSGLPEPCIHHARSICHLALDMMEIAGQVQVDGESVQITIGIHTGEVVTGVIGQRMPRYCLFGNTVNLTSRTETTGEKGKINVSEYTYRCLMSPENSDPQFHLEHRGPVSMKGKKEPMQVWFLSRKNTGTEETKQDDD

| Compound | pEC50 |
| --- | --- |
| Cc1cc(C2CCN(CC(F)(F)F)CC2)ccc1OCC1=C(c2cccc(-n3ncc(C(=O)O)c3C(F)(F)F)n2)CCCC1 [Example 6-1, 1-(6-(2-((2-methyl-4-(1-(2,2,2-trifluoroethyl)piperidin-4-yl)phenoxy)methyl)cyclohex-1-en-1-yl)pyridin-2-yl)-5-(trifluoromethyl)-1H-pyrazole-4-carboxylic acid] | 8.55 |
| O=C(O)c1cnn(-c2cccc(C3=C(COc4ccc5c(c4)CCN(Cc4ccc6ccccc6n4)C5)CCCC3)n2)c1C(F)(F)F [Example 6-2, 1-(6-(2-(((2-(quinolin-2-ylmethyl)-1,2,3,4-tetrahydroisoquinolin-6-yl)oxy)methyl)cyclohex-1-en-1-yl)pyridin-2-yl)-5-(trifluoromethyl)-1H-pyrazole-4-carboxylic acid] | 7.80 |
| Cc1cc(C2CCN(CC3CC3)CC2)ccc1OCC1=C(c2cccc(-n3ncc(C(=O)O)c3C(F)(F)F)n2)CCCC1 [Example 6-3, 1-(6-(2-((4-(1-(Cyclopropylmethyl)piperidin-4-yl)-2-methylphenoxy)methyl)cyclohex-1-en-1-yl)pyridin-2-yl)-5-(trifluoromethyl)-1H-pyrazole-4-carboxylic acid] | 6.43 |
| CCc1cc(OCC2=C(c3cccc(-n4ncc(C(=O)O)c4C(F)(F)F)n3)CCCC2)ccc1C1CCN(C(=O)C2CC2)CC1 [Example 7, 1-(6-(2-((4-(1-(Cyclopropanecarbonyl)piperidin-4-yl)-3-ethylphenoxy)methyl)cyclohex-1-en-1-yl)pyridin-2-yl)-5-(trifluoromethyl)-1H-pyrazole-4-carboxylic acid] | 9.00 |
| CCc1cc(C2CCN(C(=O)C3CC3)CC2)ccc1OCC1=C(c2cccc(-n3ncc(C(=O)O)c3C(F)(F)F)n2)CCCC1 [Example 8-1, 1-(6-(2-((4-(1-(cyclopropanecarbonyl)piperidin-4-yl)-2-ethylphenoxy)methyl)cyclohex-1-en-1-yl)pyridin-2-yl)-5-(trifluoromethyl)-1H-pyrazole-4-carboxylic acid] | 8.26 |
| O=C(O)c1cnn(-c2cccc(C3=C(COc4ccc5c(c4)CCN(Cc4ccccn4)C5)CCCC3)n2)c1C(F)(F)F [Example 8-2, 1-(6-(2-(((2-(pyridin-2-ylmethyl)-1,2,3,4-tetrahydroisoquinolin-6-yl)oxy)methyl)cyclohex-1-en-1-yl)pyridin-2-yl)-5-(trifluoromethyl)-1H-pyrazole-4-carboxylic acid] | 7.47 |
| CCc1c(C(=O)O)cnn1-c1cccc(C2=C(COc3ccc(C4CCN(C(=O)C5CC5)CC4)cc3C)CCCC2)n1 [Example 9, 1-(6-(2-((4-(1-(Cyclopropanecarbonyl)piperidin-4-yl)-2-methylphenoxy)methyl)cyclohex-1-en-1-yl)pyridin-2-yl)-5-ethyl-1H-pyrazole-4-carboxylic acid] | ≥ 9.30 |
| Cc1cc(C2CCN(C(=O)C3CC3)CC2)ccc1OCC1=C(c2cccc(-n3ncc(C(=O)O)c3C(F)(F)F)c2)CCCC1 [Example 10, 1-(6′-((4-(1-(Cyclopropanecarbonyl)piperidin-4-yl)-2-methylphenoxy)methyl)-2′,3′,4′,5′-tetrahydro-[1,1-biphenyl]-3-yl)-5-(trifluoromethyl)-1H-pyrazole-4-carboxylic acid] | 9.00 |
| Cc1cc(C2CCN(C(=O)CN)CC2)ccc1OCC1=C(c2cccc(-n3ncc(C(=O)O)c3C(F)(F)F)n2)CCCC1 [Example 11, 1-(6-(2-((4-(1-(2-Aminoacetyl)piperidin-4-yl)-2-methylphenoxy)methyl)cyclohex-1-en-1-yl)pyridin-2-yl)-5-(trifluoromethyl)-1H-pyrazole-4-carboxylic acid] | 6.96 |
| CCc1cc(OCC2=C(c3cccc(-n4ncc(C(=O)O)c4C(F)(F)F)n3)CCCC2(C)C)ccc1C1CCN(C(=O)C2CC2)CC1 [Example 14, 1-(6-(2-((4-(1-(Cyclopropanecarbonyl)piperidin-4-yl)-3-ethylphenoxy)methyl)-3,3-dimethylcyclohex-1-en-1-yl)pyridin-2-yl)-5-(trifluoromethyl)-1H-pyrazole-4-carboxylic acid] | 9.00 |
